In article PMC7901650, “Garcinoic Acid Is a Natural and Selective Agonist of Pregnane X Receptor” (Journal of Medicinal Chemistry, 2020):

How the values were obtained:
HT29-MTX = assay: PXR and CYP3A4 protein expression in HT29-MTX cells; format: cell-based; settings: 24 h, 1 to 25 μM
Description: (§1) HepG2 (human hepatoma cell line; ATCC HB-8065, Manassas, VA) and HepaRG (HPRGC10, Thermo Fisher Scientific) cells were maintained in culture as previously described.[47] Experiments were performed between passages 2 and 10. Cell viability, clonogenic activity, and apoptotic cell death were assessed as previously described (see Figure S2).[58],[59] HT29 human colorectal adenocarcinoma cells (ATCC HTB-38) and its mucous-secreting HT29-MTX subclone (Sigma-Aldrich) were used as intestinal cell models. HT29 cells were cultured in RPMI (Invitrogen; Life Technologies) containing 10% FBS (v/v) and 1% (v/v) L-glutamine. HT29-MTX cells (from Sigma-Aldrich) were cultured in DMEM supplemented with 2 mM glutamine, 1% nonessential amino acids, and 10% FBS. […]
(§2) Cells were harvested and lysed in ice-cold cell lysis buffer (Cell Signaling Technology) and 20 μL/mL protease inhibitor cocktail (Roche). […] After incubation in ice for 1 h and centrifugation (12 000 rpm for 20 min at 4 °C), the supernatant was recovered, and total proteins were quantified by the BCA assay kit (Pierce, Thermo Fisher Scientific). […] The band intensity was analyzed using Gel Pro analyzer Software. […]
(§3) PXR and CYP3A4 protein was assessed by immunoblot (20 µg total protein loading) in HT29 cells (from ATCC) were cultured in RPMI (Invitrogen; Life Technologies) containing 10% FBS ( v/v) and 1% ( v/v) L-glutamine. […]

HT29 = assay: PXR and CYP3A4 protein expression in HT29 cells; format: cell-based; settings: HT29, 24 h, 1 to 25 μM
Description: as §1, §2, §3

recombinant human Pgp = target: T1, recombinant human Pgp (Homo sapiens, UniProt P08183); assay: P-glycoprotein activity assay (Pgp-Glo); format: biochemical; settings: 50 nM to 25 μM
T1 construct: purchased Promega
T1 sequence (P08183 whole entry): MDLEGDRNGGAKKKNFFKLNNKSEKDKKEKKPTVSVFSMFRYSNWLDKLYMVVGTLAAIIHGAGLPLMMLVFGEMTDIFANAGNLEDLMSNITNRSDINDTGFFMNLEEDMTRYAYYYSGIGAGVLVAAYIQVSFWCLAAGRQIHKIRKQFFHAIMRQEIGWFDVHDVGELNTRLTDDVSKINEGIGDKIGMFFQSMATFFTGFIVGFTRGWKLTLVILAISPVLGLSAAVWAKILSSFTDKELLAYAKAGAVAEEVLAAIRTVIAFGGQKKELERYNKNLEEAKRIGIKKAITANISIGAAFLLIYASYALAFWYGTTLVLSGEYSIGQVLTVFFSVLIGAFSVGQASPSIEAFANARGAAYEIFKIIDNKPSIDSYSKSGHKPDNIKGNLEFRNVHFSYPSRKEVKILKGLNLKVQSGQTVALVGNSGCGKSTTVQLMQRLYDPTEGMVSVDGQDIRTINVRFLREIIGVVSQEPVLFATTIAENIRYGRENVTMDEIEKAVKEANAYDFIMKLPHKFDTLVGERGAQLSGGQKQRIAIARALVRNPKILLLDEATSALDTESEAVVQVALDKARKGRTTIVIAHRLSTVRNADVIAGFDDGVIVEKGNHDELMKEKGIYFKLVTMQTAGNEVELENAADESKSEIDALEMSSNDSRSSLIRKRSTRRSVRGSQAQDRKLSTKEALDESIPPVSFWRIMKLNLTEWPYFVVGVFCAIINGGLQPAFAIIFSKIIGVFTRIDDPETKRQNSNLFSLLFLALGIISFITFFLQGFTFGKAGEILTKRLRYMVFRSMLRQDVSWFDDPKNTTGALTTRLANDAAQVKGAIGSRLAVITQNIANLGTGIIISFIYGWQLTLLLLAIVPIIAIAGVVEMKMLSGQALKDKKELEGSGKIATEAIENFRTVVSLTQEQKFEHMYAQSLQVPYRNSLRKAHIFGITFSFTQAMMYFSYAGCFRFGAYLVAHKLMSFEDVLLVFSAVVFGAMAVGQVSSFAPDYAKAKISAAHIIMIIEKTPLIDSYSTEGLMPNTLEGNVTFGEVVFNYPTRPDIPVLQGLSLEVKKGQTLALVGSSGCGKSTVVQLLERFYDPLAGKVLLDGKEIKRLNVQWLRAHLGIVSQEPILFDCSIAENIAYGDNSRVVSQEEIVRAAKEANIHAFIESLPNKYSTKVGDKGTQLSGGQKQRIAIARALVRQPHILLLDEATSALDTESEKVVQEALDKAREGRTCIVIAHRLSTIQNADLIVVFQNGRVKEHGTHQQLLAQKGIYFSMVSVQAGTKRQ
Text: To evaluate the effects of GA on recombinant human Pgp in a cell membrane fraction, we used the Pgp-Glo assay system (Promega, Madison, WI), according to the manufacturer’s instruction. The assay relies on the ATP dependence of the light-generating reaction of firefly luciferase.

[1] = target: T2, hPXR ligand binding domain (LBD) (Homo sapiens, UniProt O75469); assay: Isothermal titration calorimetry, binding to His-tagged hPXR LBD; settings: ITC, 37 °C, pH 7.5
T2 construct: made in house; host or cells: E. coli BL21-Gold
T2 sequence (O75469 146-433 limits assumed): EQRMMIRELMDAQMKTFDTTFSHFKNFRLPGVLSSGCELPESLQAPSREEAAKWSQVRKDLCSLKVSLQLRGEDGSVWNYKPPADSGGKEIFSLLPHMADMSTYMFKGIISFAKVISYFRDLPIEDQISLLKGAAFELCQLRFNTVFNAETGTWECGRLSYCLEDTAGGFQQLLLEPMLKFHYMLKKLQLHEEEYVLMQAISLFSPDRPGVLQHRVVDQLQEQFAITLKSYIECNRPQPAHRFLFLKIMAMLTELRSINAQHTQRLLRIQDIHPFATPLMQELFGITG
Text: To obtain direct proof of interaction with the hPXR ligand binding domain (LBD), we performed an isothermic titration calorimetry (ITC) experiment using His-tagged hPXR LBD protein in solution (Figure 1C). ITC measures the affinity, Ka, the Gibbs energy (ΔG = −RT ln Ka), and the changes in enthalpy, ΔH, and entropy, ΔS, associated with the binding of the FKK compounds (ΔG = −RT ln K = ΔH – TΔS). Enthalpic and entropic contributions to binding affinity define the nature of the forces that drive the binding reaction.[40],[41]
ITC was performed using a VP-ITC microcalorimeter from MicroCal/Malvern Instruments (Northampton, MA). The protein and the ligands (in DMSO, 8% vol/vol final concentration) were prepared in 25 mM Hepes, pH 7.5 with 150 mM NaCl. In all of the experiments, the ligand solution was injected in 10-μL aliquots into the calorimetric cell containing PXR-LBD [3 μM] at 37 °C. The respective concentrations of GA (1), 2, and 5 in the syringe were 60 μM each. The heat evolved upon each injection of the ligands was obtained from the integral of the calorimetric signal. The heat associated with binding to PXR-LBD in the cell was obtained by subtracting the heat of dilution from the heat of reaction.

**Q.** Which “PXR and CYP3A4 protein expression” value (HT29-MTX) does the source give for `C/C(=C\CC/C(C)=C/CC[C@]1(C)CCc2cc(O)cc(C)c2O1)CC/C=C(\C)C(=O)O` [GA (1), (2E,6E,10E)-13-[(2R)-6-hydroxy-2,8-dimethyl-chroman-2-yl]-2,6,10-trimethyltrideca-2,6,10-trienoic acid] here?
**A.** increase

**Q.** And the “PXR and CYP3A4 protein expression” value (HT29)?
**A.** increase

**Q.** What about the “P-glycoprotein (MDR1) activity” value (recombinant human Pgp) of the same compound?
**A.** increased in a dose–dose-dependent manner

**Q.** What about the “N (stoichiometry)” value [1] of the same compound?
**A.** 0.9

**Q.** And the ΔG [1]?
**A.** -8.8 kcal/mol

**Q.** What about the ΔH [1] of the same compound?
**A.** -6.4 kcal/mol

**Q.** And the “−TΔS” value [1]?
**A.** -2.4 kcal/mol

**Q.** And the ΔG ([1]; listed as 1)?
**A.** -8.8 kcal/mol

**Q.** What about the ΔH ([1]; listed as 1) of the same compound?
**A.** -6.4 kcal/mol
